The values below are quoted from earlier work in PMC8042970, “A phase 1 study of dalpiciclib, a cyclin-dependent kinase 4/6 inhibitor in Chinese patients with advanced breast cancer” (Biomarker Research, 2021).

A word on the IC50: it is the concentration that gives 50% inhibition.

Read-outs that look alike come from different tables or passages of the source.

In data set [1] the test system is CDK6. Conditions: ref product label or FDA review.
On the set-up of data set [2]: method as in product label or FDA review. To be noted: ref product label or FDA review.
The test system of data set [3] is CDK4. To be noted: ref product label or FDA review.
Data set [4] deals with HR-positive and HER2-negative metastatic breast cancer.
Details of data set [5]: method as in product label or FDA review. To be noted: ref product label or FDA review. This is another data set of the same source.
On the set-up of data set [6]: method as in product label or FDA review. Conditions: ref product label or FDA review. The source holds these as a separate data set.
Where [7] appears, read: single agent palbociclib, moderately pretreated population.
Setting [8] is: phase 1 dose-escalation study of palbociclib.
Where [9] appears, read: single agent abemaciclib, heavily pretreated population.

Consider `CC(=O)c1c(C)c2cnc(Nc3ccc(N4CCNCC4)cn3)nc2n(C2CCCC2)c1=O` [palbociclib], for which the IC50 in data set [1] was […]. Also, in data set [2] (at recommended dose), the AUCss was 1633 to 1982 ng·h/mL. Further, in data set [2], the Tmax is given as 6−12 h, the Volume of distribution is listed as 2583 L and the t1/2 is reported as 29 h. Further, in data set [3], the half-inhibitory concentration (IC50) is […]. For the same molecule, in data set [4] (setting [7]), the DCR was 63.8% and the “Median PFS” value is […]. Further, under setting [8], the “MTD and recommended phase 2 dose” value is reported as 125 mg; the “Patients with DLT” value is listed as 12%. For the setting “phase 1 trial of palbociclib”, the “Patients with QTc value of > 500 ms” value is recorded as “none” and the “Patients with maximum increase from baseline QTc of < 30 ms” value was 26 of 41.

As to `CN(C)C(=O)c1cc2cnc(Nc3ccc(N4CCNCC4)cn3)nc2n1C1CCCC1` [ribociclib], the “Cmin,ss” value in data set [2] (at recommended dose) is 631 ng/mL. In data set [2], the Mild hepatic/renal impairment entry is recorded as “No effect on exposure”, the Tmax is listed as 1−4 h and the Volume of distribution was 1090 L. Also, in data set [3], the IC50 is […]. Also, in data set [5], the “Excretion, Feces” value is given as 69% and the “Excretion, Urine” value is recorded as 23%. Further, for the setting “phase 1 study of ribociclib”, the “DLT: QTcF prolongation” value is recorded as 1, the “DLT: increased creatinine” value is 1, the “DLT: mucositis” value is on record as 1 and the “DLT: neutropenia” value is 3 cases. Under “phase 1 study of ribociclib”, the “DLT: pulmonary embolism” value is given as 1 and the “DLT: thrombocytopenia” value is 2 cases. Moreover, the “Patients with DLTs” value (phase 1 study of ribociclib, first treatment cycle) is 13%. Moreover, where the note is “ribociclib”, the “Patients with QTcF prolongation” value was 6–9%. In addition, the Metabolism entry in data set [6] is given as “Liver (CYP3A4)”.

Consider `CCN1CCN(Cc2ccc(Nc3ncc(F)c(-c4cc(F)c5nc(C)n(C(C)C)c5c4)n3)nc2)CC1` [abemaciclib], for which the IC50 in data set [1] is 9.9 nM. The IC50 in data set [3] was […]. In data set [4] (setting [9]), the DCR is recorded as 66.7% and the “Median PFS” value was 5.9 months. For the same molecule, in data set [5], the “Excretion, Feces” value is given as 81% and the “Excretion, Urine” value is on record as 3%. In addition, the Metabolism entry in data set [6] is “Liver (CYP3A4)”.
